This is an account of results in ChEMBL document CHEMBL1148709, “Derivatives of (-)-7-methyl-2-(5-(pyridinyl)pyridin-3-yl)-7-azabicyclo[2.2.1]heptane are potential ligands for positron emission tomography imaging of extrathalamic nicotinic acetylcholine receptors” (J Med Chem, 2007).

The structures appear in SMILES notation. Active and inactive are the calls of the source. The calls are words filed in the database; no cut-off is given here.

Data set [1] can be described thus: Ratio of drug level in pans to cerebellum in baboon after 180 mins. Format: ADME, tissue-based. Particulars: papio hamadryas, in vivo, 3 h.
Data set [2] is described as follows: Ratio of drug level in frontal cortex to cerebellum in baboon after 180 mins. Format: ADME, tissue-based. The conditions noted are these: papio hamadryas, in vivo, 3 h.
Data set [3] can be described thus: Ratio of drug level in thalamus to cerebellum in baboon after 180 mins. Format: ADME, tissue-based. Particulars: papio hamadryas, in vivo, 3 h.
A short description of data set [4]: Ratio of drug level in thalamus to cerebellum in Wistar rat after 90 mins. The conditions noted are these: in vivo, 1.5 h. It is filed as ADME, tissue-based.
A further data set is described as follows: physchem. Particulars: octanol/water, pH 7.4.
For data set [5], the system named is Mus musculus. Kind of data set: Toxicity assessed as induction of death in CD1 mouse at 2 umol/kg. Format: organism-based. Particulars: in vivo.
Data set [6] deals with Mus musculus. Kind of data set: Induction of fast breathing in CD1 mouse at 2 umol/kg. It is filed as functional, organism-based.
For data set [7], the system named is Mus musculus. Nature of the data set: Induction of straub tail in CD1 mouse at 2 umol/kg. It is filed as functional, organism-based.

Description for physchem: Distribution coefficient, log D at pH 7.4 by shake-flask method

Consider `CN1[C@@H]2CC[C@@H]1[C@@H](c1cncc(-c3ccc([18F])nc3)c1)C2`, for which the Ratio is 2.4 in data set [1], 2.4 in data set [2] and 6 in data set [3]. For the molecule `[11CH3]N1[C@@H]2CC[C@@H]1[C@@H](c1cnc(Cl)c(-c3ccnc(F)c3)c1)C2`, the Ratio in data set [4] was determined as 6.5.

In the case of `Fc1ccc(-c2cc([C@H]3C[C@H]4CC[C@H]3N4)cnc2Cl)cn1` (racemic), in the data set “physchem”, the logD is 0.68. The molecule `CN1[C@@H]2CC[C@@H]1[C@@H](c1cnc(F)c(-c3ccc(F)nc3)c1)C2` (racemic) returned a logD in “physchem” of 0.96.

`CN1[C@@H]2CC[C@@H]1[C@@H](c1cncc(-c3ccc(F)nc3)c1)C2` (racemic) gave a logD in “physchem” of 0.45. On to `CN1[C@@H]2CC[C@@H]1[C@@H](c1cnc(F)c(-c3ccc(C#N)nc3)c1)C2` (racemic), for which, in the data set “physchem”, the logD stood at 0.64. Regarding `CN1[C@@H]2CC[C@@H]1[C@@H](c1cnc(Cl)c(-c3ccnc(F)c3)c1)C2` (racemic), in the data set “physchem”, the logD came to 1.26. Regarding `[11CH3]N1[C@@H]2CC[C@@H]1[C@@H](c1cnc(Cl)c(-c3ccnc(F)c3)c1)C2` (racemic), the Ratio in data set [4] amounted to 2.2. In turn, `CN1[C@@H]2CC[C@@H]1[C@@H](c1cnc(Cl)c(-c3ccc(F)nc3)c1)C2` (single isomer, unassigned) showed a log distribution coefficient (logD) in the data set “physchem” of 1.42. For `CN1[C@@H]2CC[C@@H]1[C@@H](c1cncc(-c3ccc(F)nc3)c1)C2` (stereo in doubt; (-)-24d) [listing 1 of 2 here], the Activity result with Mus musculus [5] was “Non-toxic”.

For `CN1[C@@H]2CC[C@@H]1[C@@H](c1cncc(-c3ccc(F)nc3)c1)C2` (stereo in doubt; (-)-24d) [listing 2 of 2 here], the result with Mus musculus [6] and with Mus musculus [7] was Active.
